Measured values reported in US20120159656A1, “COMPOSITIONS AND METHODS FOR […] DEFECTS” (Galenea Corp., priority 2009, published 2012).
Entries after “also recorded” stand apart in the source; their conditions may differ.

Columns and labels:
[1] = test system: gamma oscillations recorded from prefrontal cortex (PFC); assay: Continuous EEG recording from PFC of well-habituated mice, maximal gamma power (30-90 Hz); conditions: PCP 5 mg/kg
EEG power in the PFC = assay: Spectral analysis of PFC EEG by frequency band (area under the curve) in a familiar environment; format: in vivo, mouse
Method: Surgery, Animal handling and EEG recording were performed according to the methods disclosed herein (See, e.g., Examples 1-5). Recordings in a novel environment were made upon an animal's first exposure to the recording chamber. Animals were exposed to the recording chamber an additional 3 times (15 min each) to record EEGs from a familiar environment (fourth exposure).
EEG analysis. EEGs were analyzed using an automated FFT-periodogram function with Hamming windows in the Matlab analysis suite (pwelch function, The Mathworks, Inc., Natick MA). EEGs were analyzed in 10 sec intervals and power spectral analyses were computed for each 10 sec interval by averaging 1 sec power spectra with a 0.5 sec overlap across the entire 10 sec. Power across a given frequency band was determined by computing the area under the curve for various frequency bands (Theta: 4-12 Hz; GammaLow: 30-55 Hz; GammaHi: 65-90 Hz; Ripple: 100-300 Hz). Measures of power for each animal were binned and a frequency histogram representing number of events (10 sec each) observed at each power was computed. Frequency histograms across a given genotype were averaged to derive the final EEG power histogram for each frequency band.
To investigate the disease relevance of this intermediate power phenotype, EEGs were recorded from normal control animals in a familiar environment before and after they were treated with the psychotomimetic compound, phencyclidine (PCP) (5 mg/kg, IP).

[2] = test system: high-power gamma oscillations in the PFC; assay: EEG recording from PFC in absence and presence of novel objects before and after PCP; format: in vivo, mouse; conditions: PCP 5 mg/kg intraperitoneal, gamma 30-90 Hz
Method: Real-time monitoring of EEGs and single-unit activity (SUA) from PFC was performed via surgical implantation of 8-microwire bundle electrodes (FIG. 5A, B). […] Recordings were made using commercially available multichannel hardware (Multichannel Systems, Reutlingen, Germany). The system is capable of monitoring EEGs and SUA from PFC in freely behaving mice (FIG. 5C) and this neural activity has been characterized (FIG. 5D).
In another series of experiments, the EEG recording techniques were determined to be sensitive enough to detect pharmacologically-induced perturbations in neural activity in vivo. For these studies EEGs from PFC were measured when mice were in the absence and presence of novel environmental stimuli. To determine whether EEGs recorded from PFC are sensitive to a pharmacologic manipulation known to impair cognitive function, animals were injected intraperitoneally with PCP (5 mg/kg) and EEGs were recorded in the absence and presence of novel environmental stimuli. This experiment confirmed that high-power gamma oscillations in the PFC were elicited while animals attend to novel stimuli in the environment (FIG. 10A). […] These observations confirm that the techniques for monitoring EEGs and SUA in the PFC of freely behaving mice are sensitive enough to detect treatments known to inhibit cognition.

[3] = control animals, PCP 5 mg/kg IP

Compound: c1ccc(C2(N3CCCCC3)CCCCC2)cc1 [PCP, phencyclidine]
- distribution of the power of gamma oscillations ([1]; familiar environment, normal mice): unimodal distribution of gamma oscillations with “Intermediate” power
- gamma oscillation power after injection ([1]; well-habituated animals, gamma 30-90 Hz): 4 μV^2/Hz
- average power in the GammaHi frequency band (65-90 Hz) (EEG power in the PFC; control animals treated with PCP 5 mg/kg IP, n=5): 19.12±0.11
- effect on power in the GammaHi frequency band (65-90 Hz) (EEG power in the PFC; [3]): significant increase in the number of high-powered events; also recorded: increased the average spectral power
- effect on power in the GammaLow frequency band (30-55 Hz) (EEG power in the PFC; [3]): significantly more high-powered GammaLow events; also recorded: increased the average spectral power
- effect on power in the Ripple frequency band (100-300 Hz) (EEG power in the PFC; [3]): no significant differences in power; also recorded: no effect
- effect on power in the Theta frequency band (4-12 Hz) (EEG power in the PFC; [3]): significant increase; also recorded: increased the average spectral power
- expression of high-power gamma oscillations during novel object presentation [2]: completely blocked the expression of high-power gamma oscillations; also recorded: lack of a bimodal distribution in gamma oscillation power
